Reference: patent publication US9944607B2, “Thiohydantoin derivatives and uses thereof” (Whitehead Institute for Biomedical Research, priority 2012, dated 2018)
≈ marks a conversion by molar mass, not a printed value. Like-named read-outs stand apart in the source and are kept apart here.

Legend:
Candida albicans CaCi-2 = test: Primary assay: C. albicans CaCi-2 growth inhibition (Alamar Blue); type: cell-based; settings: n = 3, 48 hours, tested up to 26 μM; for IC50: read-out: Growth Inhibition Activity, IC50 (μM), C. albicans (n = 3) CaCi-2
Candida albicans CaCi-17 = test: Primary assay: C. albicans CaCi-17 growth inhibition (Alamar Blue); type: cell-based; settings: n = 3, 48 hours, tested up to 26 μM
[1] = test system: NIH-3T3 mammalian fibroblasts; test: Counterscreen mammalian cell toxicity assay (Alamar Blue); type: cell-based, murine; settings: n = 1, 48 hours, tested up to 26 μM
Protocol: Quiescent murine fibroblasts were subjected to incubation with compounds of interest for 48 hours. Subsequent cell viability was determined via measuring Alamar Blue fluorescence.
Procedures • After overnight culture, pin compounds into wells at 100 nL/well using the CyBio CyBi-Well pinning instrument. • Return the plates to the tissue culture incubator and incubate the culture for an additional 48 hours at 37° C. under 5% CO2. • At the completion of this incubation, add Alamar Blue solution diluted 1:40 in PBS to each well (10 μL/well) to achieve a final dilution of 1:200. • Incubate the plates for an additional 2-3 hours at 37° C. under 5% CO2. • Read the Relative Fluorescence Intensity (RFU) of wells on a standard plate reader as a measure of relative cell growth. […] 4.4.

physchem = settings: for solubility at 24 h: phosphate buffered saline with 1% DMSO, pH 7.4, aqueous buffer, kinetic from dmso stock
Protocol: Solubility was determined in phosphate buffered saline (PBS) pH 7.4 with 1% DMSO. Each compound was prepared in duplicate at 100 μM in both 100% DMSO and PBS with 1% DMSO. Compounds were allowed to equilibrate at room temperature with a 250 rpm orbital shake for 24 hours. After equilibration, samples were analyzed by UPLC-MS (Waters, Milford, Mass.) with compounds detected by SIR detection on a single quadrupole mass spectrometer. The DMSO samples were used to create a two-point calibration curve to which the response in PBS was fit.

[2] = read-out: Growth Inhibition Activity, IC50 (μM), 3T3 Fibroblasts (n = 1), Table 4
[3] = Table 4, PBS pH 7.4 with 1% DMSO, 24 hours, room temperature

CCOC(=O)N1C(=O)C2(CCCCC2)N(c2ccc(OC)cc2)C1=S [compound 56604819]
IC50 (Candida albicans CaCi-2; Table 4): 1.8 µM
Growth Inhibition Activity, IC50 (μM), C. albicans (n = 3) CaCi-17 (Candida albicans CaCi-17; Table 4): inactive
Growth Inhibition Activity, IC50 (μM), 3T3 Fibroblasts (n = 1) ([1]; Table 4): Inactive
PBS Solubility (physchem; pH 7.4): <1.0 µM

CC(C)N1C(=S)NC(=O)C12CCCCC2 [compound 56604820]
Growth Inhibition Activity, IC50 (μM), C. albicans (n = 3) CaCi-2 (Candida albicans CaCi-2; Table 7): inactive
Growth Inhibition Activity, IC50 (μM), C. albicans (n = 3) CaCi-17 (Candida albicans CaCi-17; Table 7): inactive
Growth Inhibition Activity, IC50 (μM), 3T3 Fibroblasts (n = 1) ([1]; Table 7): Inactive
solubility at 24 h (physchem): 32 µM (≈ 7.24 µg/mL)

CCOC(=O)N1C(=O)N(c2ccc(C)cc2)C2(CCCCC2)C1=O [compound 56604827]
Growth Inhibition Activity, IC50 (μM), C. albicans (n = 3) CaCi-2 (Candida albicans CaCi-2; Table 6): inactive
Growth Inhibition Activity, IC50 (μM), C. albicans (n = 3) CaCi-17 (Candida albicans CaCi-17; Table 6): inactive
Growth Inhibition Activity, IC50 (μM), 3T3 Fibroblasts (n = 1) ([1]; Table 6): Inactive
solubility at 24 h (physchem): 55 µM (≈ 18.2 µg/mL)

CCOC(=O)N1C(=S)NC(=O)C12CCCCC2 [compound 56604829]
Growth Inhibition Activity, IC50 (μM), C. albicans (n = 3) CaCi-2 (Candida albicans CaCi-2; Table 7): inactive
Growth Inhibition Activity, IC50 (μM), C. albicans (n = 3) CaCi-17 (Candida albicans CaCi-17; Table 7): inactive
Growth Inhibition Activity, IC50 (μM), 3T3 Fibroblasts (n = 1) ([1]; Table 7): Inactive
solubility at 24 h (physchem): > 100 µM

CCOC(=O)N1C(=O)C2(CCCCC2)NC1=S [compound 56604830]
Growth Inhibition Activity, IC50 (μM), C. albicans (n = 3) CaCi-2 (Candida albicans CaCi-2; Table 4): inactive
Growth Inhibition Activity, IC50 (μM), C. albicans (n = 3) CaCi-17 (Candida albicans CaCi-17; Table 4): inactive
Growth Inhibition Activity, IC50 (μM), 3T3 Fibroblasts (n = 1) ([1]; Table 4): Inactive
PBS Solubility (physchem; pH 7.4): 61 µM

Cc1ccc(N2C(=S)N(C)C(=O)C23CCCCC3)cc1 [compound 56604835]
Growth Inhibition Activity, IC50 (μM), C. albicans (n = 3) CaCi-2 (Candida albicans CaCi-2; Table 3): inactive
Growth Inhibition Activity, IC50 (μM), C. albicans (n = 3) CaCi-17 (Candida albicans CaCi-17; Table 3): inactive
Growth Inhibition Activity, IC50 (μM), 3T3 Fibroblasts (n = 1) ([1]; Table 3): Inactive
PBS Solubility (physchem; pH 7.4): 6.6 µM

CCOC(=O)N1C(=O)C2(CCCCC2)N(c2ccc(CC)cc2)C1=S [compound 56604836]
IC50 (Candida albicans CaCi-2; Table 4): 1.9 µM
Growth Inhibition Activity, IC50 (μM), C. albicans (n = 3) CaCi-17 (Candida albicans CaCi-17; Table 4): inactive
IC50 [1, 2]: 19.5 µM
PBS Solubility (physchem; [3]): <1.0 µM

CCOC(=O)N1C(=O)C2(CCCCC2)N(c2ccc(C(C)(C)C)cc2)C1=S [compound 56604837]
Growth Inhibition Activity, IC50 (μM), C. albicans (n = 3) CaCi-2 (Candida albicans CaCi-2; Table 4): inactive
Growth Inhibition Activity, IC50 (μM), C. albicans (n = 3) CaCi-17 (Candida albicans CaCi-17; Table 4): inactive
IC50 [1, 2]: 16.5 µM
PBS Solubility (physchem; [3]): <1.0 µM

O=C1NC(=S)NC12CCCCC2 [compound 56604841]
Growth Inhibition Activity, IC50 (μM), C. albicans (n = 3) CaCi-2 (Candida albicans CaCi-2; Table 7): inactive
Growth Inhibition Activity, IC50 (μM), C. albicans (n = 3) CaCi-17 (Candida albicans CaCi-17; Table 7): inactive
Growth Inhibition Activity, IC50 (μM), 3T3 Fibroblasts (n = 1) ([1]; Table 7): Inactive
solubility at 24 h (physchem): > 100 µM

CCOC(=O)N1C(=O)C2(CCCC2)N(c2ccc(C)cc2)C1=S [compound 56604843]
IC50 (Candida albicans CaCi-2; Table 5): 9.8 µM
Growth Inhibition Activity, IC50 (μM), C. albicans (n = 3) CaCi-17 (Candida albicans CaCi-17; Table 5): inactive
Growth Inhibition Activity, IC50 (μM), 3T3 Fibroblasts (n = 1) ([1]; Table 5): Inactive
PBS Solubility (physchem; pH 7.4): 9.2 µM

Cc1ccc(N2CC(=O)NC2=S)cc1 [compound 56604844]
Growth Inhibition Activity, IC50 (μM), C. albicans (n = 3) CaCi-2 (Candida albicans CaCi-2; Table 7): inactive
Growth Inhibition Activity, IC50 (μM), C. albicans (n = 3) CaCi-17 (Candida albicans CaCi-17; Table 7): inactive
IC50 ([1]; Mus musculus, NIH3T3, read-out: Growth Inhibition Activity, IC50 (μM), 3T3 Fibroblasts (n = 1), Table 7): 20.7 µM
solubility at 24 h (physchem): < 1 µM

Cc1ccc(N2C(=O)N(C)C(=O)C23CCCCC3)cc1 [compound 56604845]
Growth Inhibition Activity, IC50 (μM), C. albicans (n = 3) CaCi-2 (Candida albicans CaCi-2; Table 6): inactive
Growth Inhibition Activity, IC50 (μM), C. albicans (n = 3) CaCi-17 (Candida albicans CaCi-17; Table 6): inactive
Growth Inhibition Activity, IC50 (μM), 3T3 Fibroblasts (n = 1) ([1]; Table 6): Inactive
solubility at 24 h (physchem): 100 µM (≈ 27.2 µg/mL)

CCCOC(=O)N1C(=O)C2(CCCCC2)N(c2ccc(C)cc2)C1=S [compound 56604849]
IC50 (Candida albicans CaCi-2; Table 3): 1.2 µM
Growth Inhibition Activity, IC50 (μM), C. albicans (n = 3) CaCi-17 (Candida albicans CaCi-17; Table 3): inactive
Growth Inhibition Activity, IC50 (μM), 3T3 Fibroblasts (n = 1) ([1]; Table 3): Inactive
PBS Solubility (physchem; Table 3, PBS pH 7.4 with 1% DMSO, 24 hours, room temperature): <1.0 µM

CCOC(=O)N1C(=S)N(c2ccc(C)cc2)C(=O)C12CCCCC2 [compound 56604852]
Growth Inhibition Activity, IC50 (μM), C. albicans (n = 3) CaCi-2 (Candida albicans CaCi-2; Table 6): inactive
Growth Inhibition Activity, IC50 (μM), C. albicans (n = 3) CaCi-17 (Candida albicans CaCi-17; Table 6): inactive
Growth Inhibition Activity, IC50 (μM), 3T3 Fibroblasts (n = 1) ([1]; Table 6): Inactive
solubility at 24 h (physchem): < 1 µM

Cc1ccc(N2C(=O)C3(CCCCC3)NC2=S)cc1 [compound 56604856]
Growth Inhibition Activity, IC50 (μM), C. albicans (n = 3) CaCi-2 (Candida albicans CaCi-2; Table 7): inactive
Growth Inhibition Activity, IC50 (μM), C. albicans (n = 3) CaCi-17 (Candida albicans CaCi-17; Table 7): inactive
Growth Inhibition Activity, IC50 (μM), 3T3 Fibroblasts (n = 1) ([1]; Table 7): Inactive
solubility at 24 h (physchem): 5.9 µM (≈ 1.62 µg/mL)

CCOC(=O)N1C(=O)C(C)(C)N(c2ccc(C)cc2)C1=S [compound 56604873]
Growth Inhibition Activity, IC50 (μM), C. albicans (n = 3) CaCi-2 (Candida albicans CaCi-2; Table 5): inactive
Growth Inhibition Activity, IC50 (μM), C. albicans (n = 3) CaCi-17 (Candida albicans CaCi-17; Table 5): inactive
Growth Inhibition Activity, IC50 (μM), 3T3 Fibroblasts (n = 1) ([1]; Table 5): Inactive
